# Where no end group is shown, it is not given here.
# Tested on: HFD-fed B6.CD45.1^+ mice
# Assay: Metabolic indices (ITT, GTT, fasting insulin, body weight) in HFD-fed mice after vTreg53 Treg transfer and immunization
# Assay type: in vivo, mouse
# Settings: n ≥ 7
# From the text: Figure 7. Immunization with Fat1562 following vTreg53 Treg transfer ameliorates HFD-induced insulin resistance. (A–F) Metabolic indices of mice treated as in Figure 6A (n ≥ 7). (A) Body weight. (B) Insulin tolerance test (ITT). (C) Area over curve for ITT analysis. (D) Glucose tolerance test (GTT). (E) Area under curve for GTT analysis. (F) Plasma insulin levels after 6 hr of fasting. Data shown are representative of at least two independent experiments. (G) Scheme of the anti-TNFα experiment. (H) Number of total Treg cells in VAT (n ≥ 5). (I) Number of CD11c^hi inflammatory macrophages in VAT (n ≥ 5). (J) ITT (n ≥ 5). (K) Area over curve for ITT analysis (n ≥ 5). Data are mean ± SD. Figure 7—figure supplement 1. Absolute blood glucose levels. ITT analysis of mice transferred with vTreg53 TCR-tg Tregs and immunized with adjuvant/Fat1562 or adjuvant alone. Data shown are representative of at least two independent experiments (n ≥ 5). [drawing 7]
# To assess early Treg proliferation following peptide stimulation in vivo, 0.4 million Treg cells were sorted from pooled Spl and LNs of 6-8wk-old male CD45.2^+ Tg^+ Foxp3-GFP^KI/y mice by Moflo, labeled by the CellTrace Violet dye (ThermoFisher Scientific), and were i.v.-injected into 6-8wk old male B6.CD45.1^+ mice. The next day, the recipient mice were injected with 200 µg peptides emulsified in CFA (CFA/peptides) s.c. on the lower back. Proliferation of clonotype^+ Tregs in the spleen was determined three days later. To examine the expansion of VAT-Treg cells by peptide immunization, we sorted 0.4 million Treg cells from pooled Spl/LNs of 6-8wk-old male CD45.2^+ Tg^+ Foxp3-GFP^KI/y mice and transferred them i.v. into 6-8wk old male B6.CD45.1^+ mice. Six weeks later, the recipient mice were immunized with 200 µg CFA/peptides s.c. on the lower back, and one week later were boosted with 100 μg IFA/peptides i.p. After another week, clonotype^+ CD45.2^+ Treg cells from the Spl/LNs or VAT of recipient mice were analyzed by flow cytometry and double-sorted for ultra-low-input RNA-seq. […] One week after the IFA/peptides injection, metabolic parameters (GTT, ITT, fasting plasma insulin levels) and the composition of different immunocytes were determined.
# For GTT, mice were fasted for 15 hr overnight, weighed, and tested for fasting blood-glucose concentrations. […] Blood-glucose levels were measured before and 20, 40, 60, 90, and 120 min after glucose injection. […] Blood-glucose levels were measured before and 20, 40, 60, 90, and 120 min after insulin injection, and were normalized to the blood-glucose levels before insulin injection. The area under the curve (for GTT) or area over the curve (for ITT) were calculated using GraphPad Prism 7.0.
sequence,measurement,setting,value
TMYKNPRPMAATG [Fat1562],glucose tolerance,"GTT, 2.0 g glucose per kg i.p., 15 hr fast",promoted glucose tolerance
same,insulin sensitivity,"ITT, 0.6 U insulin per kg i.p., 6 hr fast",improved systemic insulin sensitivity
same,body weight,adjuvant/Fat1562 vs adjuvant alone,similar
same,fasting plasma insulin levels,after 6 hr of fasting,reduced fasting plasma insulin levels

# Source: paper PMC7440915, “Discovery of surrogate agonists for visceral fat Treg cells that modulate metabolic indices in vivo” (eLife, 2020)
